Legend:
Assay type in all cases: cell-based, avian
DF-1 cells [1] = test: Transcellular resistance of confluent monolayers on microelectrode (adenovirus system); conditions: 3 μM cytochalasin D vs virus at MOI of 200
Procedure: Quantitative transcellular impedance measurements were acquired in real-time using a previously reported technique of inoculating cultured cells grown on the surface of microelectrodes coated with 100 μg/ml of fibronectin (Moy et al., 2002, Moy et al., 1998, Moy et al., 1996, Moy et al., 2000). A 1-volt, 4000 Hz AC signal was supplied through a 1-M Ω resistor to approximate a constant-current source. Voltage and phase data were measured with a SRS830 lock-in amplifier (Stanford Instruments) and then later stored and processed with a personal computer. The in-phase voltage, proportional to the resistance, and the out-of-phase voltage, proportional to the capacitive reactance, were measured. For most situations, resistance is reported because it is most sensitive to cytoskeletal-membrane properties. […] A uniform number of viable cells (˜650,000 cells per sample), which was determined by the amount of cells that excluded trypan blue, were inoculated on the electrode to control for the effect of cell viability. Transcellular resistance was measured as a fractional change and normalized to the cell resistance of wild-type DF-1 cells. Transcellular resistance was measured at 15 hours for inter-subject comparisons—a time point at which transcellular resistance was at steady state. […]

DF-1 cells [2] = test: Numerical modeling of transcellular impedance (α, Rb, Cm); conditions: 3 μM cytochalasin D, wild-type DF-1 cells
Source text: A numerical analysis was used to calculate specific cell-cell and cell-substrate adhesion and membrane capacitance based on the measured transcellular impedance. The procedure is described in more detail elsewhere for endothelial cells (Moy et al., 2002, Moy et al., 2000), fibroblasts (Giaever and Keese, 1991), and for epithelial cells (Lo et al., 1995). The total impedance across a cell-covered electrode is composed of the impedance created between the ventral surface of the cell and the electrode (related to α and due to cell-matrix adhesion), the impedance created between cells (indicated by Rb and due to cell-cell adhesion), the transcellular impedance created from transcellular current conduction (Zm) and the impedance of a naked electrode (Zn). For these calculations, Zm is inversely related to membrane capacitance (Cm), which is dependent upon membrane convolution, which, in turn, is dependent on the cortical cytoskeleton. The data was expressed as a ratio of the real or imaginary measurement of cell-covered electrode to a naked electrode as a function of current frequency between 25 to 60,000 Hz. A calculated real and imaginary value was generated from the solutions of α, Rb and Cm obtained from a multi-response Levenberg-Maquardt non-linear optimization model of the real, imaginary, real and imaginary (in complex form) and real and imaginary (in magnitude form) data. An error evaluation was calculated using a Chi square analysis of the squared sum of the calculated and the experimental residuals as a function of current frequency. […]
Using a previously reported mathematical model, it was next evaluated whether the difference in 1-CaD-mediated change in transcellular resistance was due to effects on cell-cell, cell-matrix adhesion, membrane capacitance or a combination of all three. […] A calculated resistance and capacitance was generated from iterative solutions of α, Rb and Cm obtained from a multi-response Levenberg-Maquardt non-linear optimization model of the real and/or imaginary data. […]

DF-1 cells [3] = test: Cell viability assay, trypan blue; conditions: 48 hrs, 200 MOI virus or 3 μM cytochalasin D
Procedure: Cultured cells were transfected with Ad-CaD or the controlled virus using a calcium phosphate co-precipitation technique. Cells were washed free of virus and incubated for additional 48 hours in serum containing medium. Transfected cells were exposed to trypan blue dye and the fraction of viable cells was quantitated. Viability of cells transfected with Ad-CaD and controlled virus was compared to the cell viability measured in monolayers exposed to cytochalasin for the same corresponding period.

DF-1 cells [4] = test: In vitro wound closure assay to measure cell motility; conditions: mechanical wounding
Procedure: DF-1 cell motility was measured by wounding the cell monolayer and measuring wound closure by monitoring the traversed distance over time. DF-1 cells were plated at 70% confluence on glass cover slips coated with 100 μg/ml of fibronectin. These cells were then transfected with Ad-CaD or Ad-empty and allowed to grow to 100% confluence (2 days post-transfection). A wound was made in the monolayer using a sterile pipette tip with an outer diameter of 300 μm. The same area was captured sequentially at time intervals of 0, 1, 3, and 6 hours under phase contrast microscopy. The migrated distance was assessed at 3 locations that were separated by equal distance. Cell motility was determined as the average velocity for the 3 measurements for each time point. […]
It was next evaluated whether human wild-type 1-CaD expression disturbs cytopathic effects such as wound closure. Cell motility in response to mechanical wounding was measured to address this question. […] Cultured monolayers were subjected to mechanical wounding with a glass pipette and time-lapse images of cell motility were recorded over a period of several hours. Each image was equally divided into 3 regions, and the leading edge of cell migration was measured for each time point. Cell motility for each time point was determined as the average velocity measured for each of 3 regions. […]

DF-1 cells [5] = test: Prestress force: constitutive isometric tension on collagen membranes; conditions: 3 μM cytochalasin D
Procedure: Prestress was determined by the measured loss of constitutive isometric tension in response to cytochalasin D. Isometric tension was measured in cultured DF-1 cells inoculated on the surface of polymerized type 1 collagen membranes as described by Bodmer (1997). Isometric tension was simultaneously monitored in 2 separate isometric vectors to account for the presence of anisotropic tension. Constitutive tension was measured in cell-collagen lattices under unloaded conditions. To determine the optimal length-tension relationship during the unloaded state, the collagen gel was stretched with a micromanipulator that was attached to the transducer until a 10 mg increase in force was observed. The gel was progressively unloaded until no further decline in preload was observed. The length (Carson et al., 1989) of the gel was chosen as the no-load state. […] The constitutive tension was defined as the measured loss in tension upon the addition of cytochalasin D.
Since expression of wild-type human 1-CaD stabilizes membrane capacitance, it was next asked whether this enhancement was attributed to a reduction in myosin ATPase activity. […] Constitutive tension was measured under isometric no-load conditions in order to be consistent with the mechanical state at which transcellular resistance was measured. […]

C=C1[C@@H](C)[C@H]2[C@H](Cc3ccccc3)NC(=O)[C@]23[C@H](OC(C)=O)/C=C/[C@@](C)(O)C(=O)[C@@H](C)C/C=C/[C@H]3[C@@H]1O [Cytochalasin D]
Transcellular resistance (DF-1 cells [1]): greater loss in transcellular resistance than cells transfected with Ad-CaD or controlled virus
Cm (membrane capacitance) (DF-1 cells [2]): statistically significant increase in Cm
Rb (cell-cell adhesion) (DF-1 cells [2]): decrease in α and Rb
α (cell-matrix adhesion) (DF-1 cells [2]): decrease in α and Rb
Cell viability / cell death (DF-1 cells [3]): decreased cell viability in a statistically significant manner
Wound repair (DF-1 cells [4]): completely inhibited wound repair
Constitutive tension (DF-1 cells [5]): abolished constitutive tension

Source: patent US20050163755A1, “Methods and compositions related to 1-caldesmon” (priority 2003, published 2005)
